System: 565232-114-T-J1-PDC complex spheroid viability
Experiment: Anticancer human tumor 565232-114-T-J1-PDC patient-derived bladder carcinoma cell line growth inhibition [CLK]
Conditions: for IC50: curve of first compound; for viability, T/C: stronger effect = lower value
Method in brief: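 Multi-cell-type spheroids combined patient-derived tumor cells with HUVEC endothelial cells and human mesenchymal stem cells. Paired agents were dosed in half-log steps down from about clinical Cmax, or from 10 microM where Cmax was unknown.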

[1] = second compound 0.0316 µM, first compound 0.0316 µM
[2] = second compound 0.0316 µM, first compound 0.1 µM
[3] = second compound 0.0316 µM, first compound 0.316 µM
[4] = second compound 0.0316 µM, first compound 1 µM
[5] = second compound 0.0316 µM, first compound 3.16 µM
[6] = second compound 0.0316 µM, first compound 10 µM
[7] = second compound 0.1 µM, first compound 0.0316 µM
[8] = second compound 0.1 µM, first compound 0.1 µM
[9] = second compound 0.1 µM, first compound 0.316 µM
[10] = second compound 0.1 µM, first compound 1 µM
[11] = second compound 0.1 µM, first compound 3.16 µM
[12] = second compound 0.1 µM, first compound 10 µM
[13] = second compound 0.316 µM, first compound 0.0316 µM
[14] = second compound 0.316 µM, first compound 0.1 µM
[15] = second compound 0.316 µM, first compound 0.316 µM
[16] = second compound 0.316 µM, first compound 1 µM
[17] = second compound 0.316 µM, first compound 3.16 µM
[18] = second compound 0.316 µM, first compound 10 µM
[19] = second compound 1 µM, first compound 0.0316 µM
[20] = second compound 1 µM, first compound 0.1 µM
[21] = second compound 1 µM, first compound 0.316 µM
[22] = second compound 1 µM, first compound 1 µM
[23] = second compound 1 µM, first compound 3.16 µM
[24] = second compound 1 µM, first compound 10 µM
[25] = second compound 3.16 µM, first compound 0.0316 µM
[26] = second compound 3.16 µM, first compound 0.1 µM
[27] = second compound 3.16 µM, first compound 0.316 µM
[28] = second compound 3.16 µM, first compound 1 µM
[29] = second compound 3.16 µM, first compound 3.16 µM
[30] = second compound 3.16 µM, first compound 10 µM
[31] = second compound 10 µM, first compound 0.0316 µM
[32] = second compound 10 µM, first compound 0.1 µM
[33] = second compound 10 µM, first compound 0.316 µM
[34] = second compound 10 µM, first compound 1 µM
[35] = second compound 10 µM, first compound 3.16 µM
[36] = second compound 10 µM, first compound 10 µM
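Further: spheroids exposed to compounds for 7 days before readout.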
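Wherever viability, T/C is given: 100% = DMSO vehicle wells with luminescence normalized to vehicle control.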

CC(Nc1ccc2c(c1)OCCn1cc(N3C(=O)OCC3C(F)F)nc1-2)C(N)=O (stereo not drawn) + CNC(=O)c1ccc(Nc2nc(OC3CCCC3)c3c(-c4ccc5nc(C)oc5c4)c[nH]c3n2)c(OC)c1
IC50 (second compound 0.0316 µM): > 10000 nM | IC50 (second compound 0.1 µM): < 31.6 nM | IC50 (second compound 0.316 µM): < 31.6 nM | IC50 (second compound 1 µM): < 31.6 nM | IC50 (second compound 3.16 µM): < 31.6 nM | IC50 (second compound 10 µM): < 31.6 nM | viability, T/C [1]: 87.5% | viability, T/C [2]: 93.6% | viability, T/C [3]: 88.1% | viability, T/C [4]: 100% | viability, T/C [5]: 101% | viability, T/C [6]: 101% | viability, T/C [7]: 35.1% | viability, T/C [8]: 34.1% | viability, T/C [9]: 37.4% | viability, T/C [10]: 39.9% | viability, T/C [11]: 33.6% | viability, T/C [12]: 29.2% | viability, T/C [13]: 21.4% | viability, T/C [14]: 20.2% | viability, T/C [15]: 23.8% | viability, T/C [16]: 23.7% | viability, T/C [17]: 19.9% | viability, T/C [18]: 18% | viability, T/C [19]: 15.5% | viability, T/C [20]: 15.3% | viability, T/C [21]: 12.6% | viability, T/C [22]: 14.9% | viability, T/C [23]: 13.1% | viability, T/C [24]: 9.75% | viability, T/C [25]: 9.27% | viability, T/C [26]: 10.4% | viability, T/C [27]: 9.44% | viability, T/C [28]: 10.1% | viability, T/C [29]: 6.97% | viability, T/C [30]: 10.2% | viability, T/C [31]: 12.9% | viability, T/C [32]: 10.9% | viability, T/C [33]: 13.1% | viability, T/C [34]: 9.16% | viability, T/C [35]: 7.38% | viability, T/C [36]: 5.93%

COc1ccc([C@@H](O)c2cc(-c3ncnc4cc(N5CCOCC5)ccc34)c(F)cc2Cl)nn1 + CN1CCN(c2cc(C(=O)Nc3cc4cc(-c5cnn(C)c5)ccc4cn3)ccn2)CC1
IC50 (second compound 0.0316 µM): > 10000 nM | IC50 (second compound 0.1 µM): > 10000 nM | IC50 (second compound 0.316 µM): < 31.6 nM | IC50 (second compound 1 µM): < 31.6 nM | IC50 (second compound 3.16 µM): < 31.6 nM | IC50 (second compound 10 µM): < 31.6 nM | viability, T/C [1]: 87.3% | viability, T/C [2]: 95.6% | viability, T/C [3]: 88.1% | viability, T/C [4]: 85.4% | viability, T/C [5]: 96.9% | viability, T/C [6]: 103% | viability, T/C [7]: 88.1% | viability, T/C [8]: 91.6% | viability, T/C [9]: 86.3% | viability, T/C [10]: 113% | viability, T/C [11]: 105% | viability, T/C [12]: 97.9% | viability, T/C [13]: 12.2% | viability, T/C [14]: 18.2% | viability, T/C [15]: 17.1% | viability, T/C [16]: 11.9% | viability, T/C [17]: 16.2% | viability, T/C [18]: 13.2% | viability, T/C [19]: 0.83% | viability, T/C [20]: 0.2% | viability, T/C [21]: 1.54% | viability, T/C [22]: 0.18% | viability, T/C [23]: 0.2% | viability, T/C [24]: 1.34% | viability, T/C [25]: 0.14% | viability, T/C [26]: 0.2% | viability, T/C [27]: 0.18% | viability, T/C [28]: 0.18% | viability, T/C [29]: 1.47% | viability, T/C [30]: 1.21% | viability, T/C [31]: 0.1% | viability, T/C [32]: 0.16% | viability, T/C [33]: 0.24% | viability, T/C [34]: 0.19% | viability, T/C [35]: 0.2% | viability, T/C [36]: 1.44%

CC1COCCN1c1cc(C2(S(C)(=N)=O)CC2)nc(-c2ccnc3[nH]ccc23)n1 (stereo not drawn) + CNC(=O)c1ccc(Nc2nc(OC3CCCC3)c3c(-c4ccc5nc(C)oc5c4)c[nH]c3n2)c(OC)c1
IC50 (second compound 0.0316 µM): 6350 nM | IC50 (second compound 0.1 µM): 222 nM | IC50 (second compound 0.316 µM): < 31.6 nM | IC50 (second compound 1 µM): < 31.6 nM | IC50 (second compound 3.16 µM): < 31.6 nM | IC50 (second compound 10 µM): < 31.6 nM | viability, T/C [1]: 95.2% | viability, T/C [2]: 85.1% | viability, T/C [3]: 93.2% | viability, T/C [4]: 79.4% | viability, T/C [5]: 103% | viability, T/C [6]: 23.2% | viability, T/C [7]: 55.6% | viability, T/C [8]: 57% | viability, T/C [9]: 42% | viability, T/C [10]: 44.2% | viability, T/C [11]: 30.2% | viability, T/C [12]: 11.5% | viability, T/C [13]: 31.4% | viability, T/C [14]: 38.3% | viability, T/C [15]: 35.7% | viability, T/C [16]: 28.6% | viability, T/C [17]: 22% | viability, T/C [18]: 9.67% | viability, T/C [19]: 24.7% | viability, T/C [20]: 25.2% | viability, T/C [21]: 25.9% | viability, T/C [22]: 23.8% | viability, T/C [23]: 11.1% | viability, T/C [24]: 4.92% | viability, T/C [25]: 19.1% | viability, T/C [26]: 17.4% | viability, T/C [27]: 17.4% | viability, T/C [28]: 13.3% | viability, T/C [29]: 11.2% | viability, T/C [30]: 2.86% | viability, T/C [31]: 19% | viability, T/C [32]: 21.1% | viability, T/C [33]: 20.5% | viability, T/C [34]: 15.5% | viability, T/C [35]: 6.6% | viability, T/C [36]: 1.53%

Nc1ccn(C2OC(CO)C(O)C2(F)F)c(=O)n1 (stereo not drawn) + CNC(=O)c1ccc(Nc2nc(OC3CCCC3)c3c(-c4ccc5nc(C)oc5c4)c[nH]c3n2)c(OC)c1
IC50 (second compound 0.0316 µM): 36 nM | IC50 (second compound 0.1 µM): < 31.6 nM | IC50 (second compound 0.316 µM): < 31.6 nM | IC50 (second compound 1 µM): < 31.6 nM | IC50 (second compound 3.16 µM): < 31.6 nM | IC50 (second compound 10 µM): < 31.6 nM | viability, T/C [1]: 54.3% | viability, T/C [2]: 18.6% | viability, T/C [3]: 8.71% | viability, T/C [4]: 7.4% | viability, T/C [5]: 11.2% | viability, T/C [6]: 13.6% | viability, T/C [7]: 35.7% | viability, T/C [8]: 22% | viability, T/C [9]: 8.15% | viability, T/C [10]: 9.21% | viability, T/C [11]: 13.3% | viability, T/C [12]: 11.8% | viability, T/C [13]: 26.2% | viability, T/C [14]: 19.5% | viability, T/C [15]: 8.41% | viability, T/C [16]: 7.45% | viability, T/C [17]: 12.3% | viability, T/C [18]: 12.2% | viability, T/C [19]: 16.9% | viability, T/C [20]: 14.9% | viability, T/C [21]: 8.75% | viability, T/C [22]: 7.6% | viability, T/C [23]: 9.48% | viability, T/C [24]: 8.93% | viability, T/C [25]: 19.3% | viability, T/C [26]: 14.5% | viability, T/C [27]: 5.99% | viability, T/C [28]: 5.99% | viability, T/C [29]: 6.76% | viability, T/C [30]: 6.01% | viability, T/C [31]: 17.7% | viability, T/C [32]: 13.9% | viability, T/C [33]: 6.66% | viability, T/C [34]: 6.31% | viability, T/C [35]: 6.89% | viability, T/C [36]: 5.15%

— PubChem BioAssay AID2060612 (Molecular Pharmacology Branch, DTP, NCI, 2025)
